For this assay, the target named is T1, GPR158 (Homo sapiens, UniProt Q5T848).
T1 sequence (Q5T848 24-1215): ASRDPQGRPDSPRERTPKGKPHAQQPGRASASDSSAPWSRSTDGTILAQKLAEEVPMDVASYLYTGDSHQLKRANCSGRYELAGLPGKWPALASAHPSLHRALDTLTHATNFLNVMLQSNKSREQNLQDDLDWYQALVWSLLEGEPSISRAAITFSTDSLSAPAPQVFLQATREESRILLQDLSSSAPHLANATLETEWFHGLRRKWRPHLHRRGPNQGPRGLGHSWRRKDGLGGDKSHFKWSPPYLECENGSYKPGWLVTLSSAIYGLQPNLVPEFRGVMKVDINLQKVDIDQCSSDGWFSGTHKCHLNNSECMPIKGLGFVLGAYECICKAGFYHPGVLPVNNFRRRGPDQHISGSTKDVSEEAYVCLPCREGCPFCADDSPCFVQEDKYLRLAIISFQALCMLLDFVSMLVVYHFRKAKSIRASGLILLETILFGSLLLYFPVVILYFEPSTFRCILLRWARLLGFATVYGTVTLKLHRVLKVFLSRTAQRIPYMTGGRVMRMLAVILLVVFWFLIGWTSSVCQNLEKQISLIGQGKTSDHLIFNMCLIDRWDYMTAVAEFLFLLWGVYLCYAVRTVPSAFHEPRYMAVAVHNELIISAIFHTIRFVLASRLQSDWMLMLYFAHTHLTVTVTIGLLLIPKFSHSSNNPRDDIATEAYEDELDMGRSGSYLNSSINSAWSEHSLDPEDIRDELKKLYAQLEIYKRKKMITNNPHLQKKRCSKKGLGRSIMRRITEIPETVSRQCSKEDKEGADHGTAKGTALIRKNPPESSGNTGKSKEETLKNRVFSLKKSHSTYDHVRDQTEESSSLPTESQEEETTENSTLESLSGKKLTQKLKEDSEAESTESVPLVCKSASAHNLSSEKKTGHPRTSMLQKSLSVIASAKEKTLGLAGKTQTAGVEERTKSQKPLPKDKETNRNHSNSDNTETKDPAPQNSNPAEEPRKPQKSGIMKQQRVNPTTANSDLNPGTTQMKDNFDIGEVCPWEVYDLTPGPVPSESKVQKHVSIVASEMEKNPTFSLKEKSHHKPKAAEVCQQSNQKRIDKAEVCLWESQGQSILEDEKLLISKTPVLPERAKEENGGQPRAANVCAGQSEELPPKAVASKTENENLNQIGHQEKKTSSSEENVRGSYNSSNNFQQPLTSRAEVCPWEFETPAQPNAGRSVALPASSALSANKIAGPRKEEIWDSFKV
As to the kind of experiment: BRET β-arrestin recruitment assay. The arrangement: expressed in transfected cells; host or cells: HEK293 (HEK293FT in the BRET methods). Type of assay: cell-based. The note with it: yPET-β-arrestin-2, HEK293 cells. An excerpt:
FIGS. 6A-6B. Effect of glycine on GPR158 coupling to β-arrestin. A) Schematic of the BRET based β-arrestin recruitment assay B) Dose response profile evaluating recruitment of β-arrestin using BRET-based recruitment assay that measures association of yPET-β-arrestin-2 with Rluc8-tagged receptor: GPR158 or kOR used as a positive control. Constructs were co-transfected into HEK293 cells stimulated with increasing concentration of U50488 or glycine. Data shown fold over basal of 4 independent experiments performed in triplicate mean±s.e.m.
The inventors further tested whether glycine or taurine could induce GPR158 to activate G proteins as canonical GPCRs do. In these experiments, the inventors used a reverse strategy where the inventors monitored generation of the BRET signal in the same assay (FIG. 5A).
Cells were co-transfected with Rluc-tagged receptors and YPet-β-arrestin2. Coelenterazine H were diluted at 5 μM in BRET buffer and added to cells with glycine or U50488 as indicated. BRET ratio was determined by calculating the ratio of the light emitted by the Venus (535 nm with a 30 nm band path width) over the light emitted by RLuc (475 nm with a 30 nm band path width) in order to measure an increase of the signal when β-arrestin is recruited. BRET ratio was calculated and fold over basal response was plotted as a function of kOR condition.

Consider 1 molecule from US20260376293A1, “METHODS FOR STUDYING GPR158 PHARMACOLOGY AND IDENTIFICATION OF ITS LIGANDS” (UNIVERSITY OF FLORIDA RESEARCH FOUNDATION, INCORPORATED, priority 2022, published 2026).

Each structure is given as a SMILES string.

Turning to `NCC(=O)O` [glycine], the “β-arrestin recruitment to GPR158” value was “no significant response”.
